Publication PMC9653649 (Molecules, 2022)
pIC50: −log10 of the molar value.

Experiments:
[1] = system: Human Dermal Fibroblast (HDF) cell line; test: Cell viability using MTT assay; format: cell-based; details: 24 h, 0.1-100 µM, read-out: IC50 against fibroblast cells
Procedure: The synthesized compounds were screened for their cytotoxic activities against fibroblast cell lines at different concentrations for 24 h using MTT assay. […] Human Dermal Fibroblast (HDF) cell line was bought from the American Type Culture Collection (ATCC; Minnesota, USAHB-8065). It was cultured in Park Memorial Institute (RPMI-1640) culture media with glutamine 2 mM (bio west, Nampa, cat. no. L0498-500), 10% fetal bovine serum (PAA, Pasching Austria, cat. no. A11-151) and penicillin with streptomycin 1% (Lonza, Verviers, Belgium, cat. no. DE17-602E). The HDF cells were grown in 50 cm^2 flask (Greinerbio-one GmbH Maybach-str. 272636 Frickenhausen, Germany) and preserved in a typical humidified incubator supplied with 5% CO2, 95% air at 37 °C (New Brunswick Scientific-Innova co-170). Cells were washed with cold phosphate-buffered saline, trypsinized, harvested and centrifuged to form cell pellets. The cultured HDFa were plated in 96 well microplates at a concentration of 5 × 10^4 cells per well 24 h before the MTT assay to allow microplate adherence. MTT Reagent was provided, prepared for use, and acquired from Biospes, China, Cat n#BAR1005-1. According to the manufacturer protocol, the cultured cells were presented with different concentrations of the assessed agents. 20 μL of MTT solution was filled with each well. For 4 h, the plate was kept at 37 °C. After incubation, 100 μL of formazan diluent buffer (Biospes, Chongqing, China, Cat n#BAR1005-1) was poured into each well. ELISA plate reader (Stat Fax 2200, Awareness Technologies, Palm City, FL, USA) measured color absorbance at 540 nm. Three readings were taken on three different days and averaged for each sample. At last, cell survival was determined according to the following equation: %cell survival=Asample/Acontrol×100% Acontrol is the absorbance of the cell culture after adding MTT and formazan buffer, but without treatment by any drug candidate. […] IC50 values were then calculated by curve-fitting involving non-linear regression. […]

[2] = system: COX-1; test: Western blot analysis of COX-1; format: cell-based; details: versus untreated control
Text: (§1) The anti-inflammatory activities of compounds HI and HL were further confirmed by Western blotting analysis of COX-1/COX-2.
(§2) For validating the anti-inflammatory pathway at the protein expression level, we used the immunoblotting (Western blot) technique.

[3] = system: COX-2; test: Western blot analysis of COX-2; format: cell-based; details: versus untreated control
Text: as §1, §2

[4] = biological target: T1, ovine COX-1 (Ovis aries, UniProt P05979); test: In vitro COX-1 isozyme inhibition assay (EIA/ELISA kit, Cayman)
T1 sequence (P05979 25-600): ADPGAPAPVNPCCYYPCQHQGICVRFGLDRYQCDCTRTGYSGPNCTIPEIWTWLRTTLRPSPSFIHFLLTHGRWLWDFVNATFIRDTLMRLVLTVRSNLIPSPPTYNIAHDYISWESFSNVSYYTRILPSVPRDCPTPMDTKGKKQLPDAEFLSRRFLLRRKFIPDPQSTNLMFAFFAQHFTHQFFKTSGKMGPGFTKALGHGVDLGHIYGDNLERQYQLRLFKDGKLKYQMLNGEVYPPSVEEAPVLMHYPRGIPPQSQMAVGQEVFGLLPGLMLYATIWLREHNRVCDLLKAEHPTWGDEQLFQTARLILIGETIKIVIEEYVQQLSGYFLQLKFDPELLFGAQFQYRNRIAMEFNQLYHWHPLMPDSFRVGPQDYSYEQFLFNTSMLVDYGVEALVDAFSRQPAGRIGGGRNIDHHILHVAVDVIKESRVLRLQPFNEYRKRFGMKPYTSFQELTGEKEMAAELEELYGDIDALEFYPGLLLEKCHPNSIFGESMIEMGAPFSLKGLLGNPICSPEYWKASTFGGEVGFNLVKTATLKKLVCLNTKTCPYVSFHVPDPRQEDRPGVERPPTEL

[5] = biological target: T2, human recombinant COX-2 (Homo sapiens, UniProt P35354); test: In vitro COX-2 isozyme inhibition assay (EIA/ELISA kit, Cayman); details: for COX-2 SI (COX-1 IC50/COX-2 IC50): selectivity index
T2 sequence (P35354 18-604): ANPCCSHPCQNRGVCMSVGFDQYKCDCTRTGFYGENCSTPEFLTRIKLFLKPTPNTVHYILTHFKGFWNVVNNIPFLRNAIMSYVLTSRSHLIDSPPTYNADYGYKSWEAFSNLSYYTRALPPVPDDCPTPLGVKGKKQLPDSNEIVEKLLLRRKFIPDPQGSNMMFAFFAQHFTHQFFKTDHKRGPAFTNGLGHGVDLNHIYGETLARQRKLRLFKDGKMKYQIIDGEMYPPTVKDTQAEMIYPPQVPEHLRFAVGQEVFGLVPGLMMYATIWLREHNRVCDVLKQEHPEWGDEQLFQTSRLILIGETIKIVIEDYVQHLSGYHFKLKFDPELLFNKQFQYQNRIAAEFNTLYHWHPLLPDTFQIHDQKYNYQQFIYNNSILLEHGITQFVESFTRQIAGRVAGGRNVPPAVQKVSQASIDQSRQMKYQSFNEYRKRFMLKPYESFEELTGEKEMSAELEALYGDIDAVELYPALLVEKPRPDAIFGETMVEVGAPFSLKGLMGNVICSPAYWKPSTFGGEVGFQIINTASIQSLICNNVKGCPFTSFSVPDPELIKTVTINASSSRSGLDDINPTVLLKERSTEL

[6] = Solubility examined in various solvents; format: physicochemical; details: organic solvents
Text: . H% = 7.46 (7.51); N% = 8.63 (8.55), calc. (found), respectively (Table 1).

| melting point [°C] | pIC50 [4] | pIC50 [5] | COX-2 SI (COX-1 IC50/COX-2 IC50) [5] | Structure (SMILES) | pIC50 [1] | COX-1 protein level by Western blot [2] | COX-2 protein level by Western blot [3] | Solubility in solvents [6] |
| --- | --- | --- | --- | --- | --- | --- | --- | --- |
| 85 | 5.12 | 5.37 | 1.7 | CC(C)Cc1ccc(C(C)C(=O)NN)cc1 (stereo not drawn) [HI, 2-(4-Isobutylphenyl) Propane Hydrazide] | 5.41 | downregulation | downregulation |  |
|  | 5.07 | 5.31 | 1.8 | CC(C)Cc1ccc(C(C)C(=O)NN=Cc2ccccc2O)cc1 (stereo not drawn) [HL] | 5.38 | downregulation | downregulation | soluble in DMSO, DMF, ethanol, methanol, and acetonitrile |
|  |  |  |  | CC(C)Cc1ccc(C(C)C(=O)O)cc1 (stereo not drawn) [Ibuprofen, reference compound] | 4.51 |  |  |  |
